Numbered stars: 1 amine (or outer) side, 2 acyl side, 3 side chain; on linkers, the order of the positions; unused ones are H or OH. Bridge positions count the residues as written; N and C are the ends. Square brackets hold non-standard residues; d marks the D form. Peptide text beside a SMILES is read from it. * marks the point of attachment. C20 diacid = O=C(O)CCCCCCCCCCCCCCCCCCC(=O)*; γGlu = O=C(O)[C@H](CCC(=O)[*:2])N[*:1]; Hyp = O=C(O)[C@@H]1C[C@@H](O)CN1
Key:
hAM1 receptor = hAM1 receptor (Homo sapiens, UniProt O60895+Q16602); experiment: cAMP assay for in vitro receptor activation, hAM1-R; format: cell-based; details: cAMP assay, hAM1 receptor; read-out: hAM1R EC50
Sequence of hAM1 receptor (Q16602 23-461): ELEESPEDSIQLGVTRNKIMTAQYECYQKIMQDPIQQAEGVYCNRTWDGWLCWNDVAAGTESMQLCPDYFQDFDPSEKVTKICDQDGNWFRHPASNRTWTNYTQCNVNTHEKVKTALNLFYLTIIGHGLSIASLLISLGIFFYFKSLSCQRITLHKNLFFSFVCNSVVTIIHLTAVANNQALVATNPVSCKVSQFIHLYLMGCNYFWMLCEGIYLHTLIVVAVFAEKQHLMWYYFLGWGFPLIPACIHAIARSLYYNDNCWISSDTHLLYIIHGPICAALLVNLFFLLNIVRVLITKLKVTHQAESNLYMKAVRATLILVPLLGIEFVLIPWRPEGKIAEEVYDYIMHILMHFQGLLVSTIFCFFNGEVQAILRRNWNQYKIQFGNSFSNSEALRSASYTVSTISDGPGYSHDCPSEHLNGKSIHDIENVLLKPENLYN
Sequence of hAM1 receptor (O60895 43-175 partner): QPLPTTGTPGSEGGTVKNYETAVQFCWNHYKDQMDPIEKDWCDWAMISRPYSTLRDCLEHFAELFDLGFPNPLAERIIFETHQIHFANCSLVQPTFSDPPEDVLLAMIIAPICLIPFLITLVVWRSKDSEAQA
Protocol: General Protocols for cAMP Assays for Measuring In Vitro Receptor Activation
Cells stably overexpressing the hAM1 receptor were obtained from Ogeda (now Astellas Pharma), sub-cloned and a monoclonal cell-line with an appropriate assay-window was expanded, aliquoted and frozen. An aliquot was thawed and plated in DPBS with 0.05% casein and 0.5 mM IBMX as 8000 cells/well in a 384-well format.

hAMY3 receptor = target: T1, hAMY3 receptor (Homo sapiens, UniProt O60896+P30988); experiment: cAMP assay for in vitro receptor activation, hAMY3-R; format: cell-based; details: cAMP assay, hAMY3 receptor; read-out: hAMY3R EC50
T1 sequence (P30988 25-474): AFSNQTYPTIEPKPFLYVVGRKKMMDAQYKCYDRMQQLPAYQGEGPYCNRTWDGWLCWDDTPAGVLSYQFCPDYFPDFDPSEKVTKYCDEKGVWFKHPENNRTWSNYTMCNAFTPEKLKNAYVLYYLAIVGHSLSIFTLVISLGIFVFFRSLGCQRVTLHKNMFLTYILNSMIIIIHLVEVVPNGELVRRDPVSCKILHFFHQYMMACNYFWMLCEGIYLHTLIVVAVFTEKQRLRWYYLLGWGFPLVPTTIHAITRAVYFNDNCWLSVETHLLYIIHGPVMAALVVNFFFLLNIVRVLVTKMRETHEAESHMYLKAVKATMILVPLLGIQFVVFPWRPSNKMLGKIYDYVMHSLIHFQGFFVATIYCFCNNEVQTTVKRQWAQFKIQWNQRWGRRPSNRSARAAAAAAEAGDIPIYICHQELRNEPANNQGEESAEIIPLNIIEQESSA
T1 sequence (O60896 24-148 partner): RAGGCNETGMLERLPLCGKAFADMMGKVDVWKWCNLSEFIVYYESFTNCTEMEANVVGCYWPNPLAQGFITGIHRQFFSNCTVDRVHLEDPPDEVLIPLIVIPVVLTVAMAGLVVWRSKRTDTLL
Procedure, shortened: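 Receptor activation was measured as cAMP accumulation in a monoclonal cell line stably overexpressing hAMY3. Stimulation with graded doses lasted 30 min at room temperature in the presence of 0.5 mM IBMX, with human amylin as positive control.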

[1] = Physical stability of peptide analogues (Thioflavin T fibrillation); format: physicochemical; details: maximum ThT signal normalized between hAMY maximum and buffer background; 40° C., shaking, four days; pH 7 per table title
Procedure, shortened: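 ThT fluorescence (450 nm excitation, 480 nm emission; 4 μM dye) was read every 10 min over four days at 40° C under 700 rpm shaking stress, after 1 h in pH 4 acetate or pH 7 phosphate (50 mM). Peak smoothed signal expressed as percent, scaled between buffer background and hAMY maximum.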

| EC50 (hAM1 receptor) | EC50 (hAMY3 receptor) | Max ThT signal (%) [1] | Compound |
| --- | --- | --- | --- |
| > 5000 nM |  |  | CC[C@H](C)[C@H](NC(=O)[C@H](C)NC(=O)CNC(=O)[C@H](Cc1ccccc1)NC(=O)[C@H](CC(N)=O)NC(=O)[C@H](CC(N)=O)NC(=O)[C@H](CO)NC(=O)[C@H](CO)NC(=O)[C@H](Cc1c[nH]cn1)NC(=O)[C@@H](NC(=O)[C@H](CC(C)C)NC(=O)[C@H](Cc1ccccc1)NC(=O)[C@H](CC(N)=O)NC(=O)[C@H](C)NC(=O)[C@H](CC(C)C)NC(=O)[C@H](CCCNC(=N)N)NC(=O)[C@H](CCC(N)=O)NC(=O)[C@@H](NC(=O)[C@H](C)NC(=O)[C@@H]1CSSC[C@H](NC(=O)[C@@H](N)CCCCN)C(=O)N[C@@H](CC(N)=O)C(=O)N[C@@H]([C@@H](C)O)C(=O)N[C@@H](C)C(=O)N[C@@H]([C@@H](C)O)C(=O)N1)[C@@H](C)O)C(C)C)C(=O)N[C@@H](CC(C)C)C(=O)N1CCC[C@H]1C(=O)N[C@@H](CO)C(=O)N[C@H](C(=O)N[C@@H](CCCCN)C(=O)N[C@H](C(=O)NCC(=O)N[C@@H](CO)C(=O)N[C@@H](CC(N)=O)C(=O)NCC(=O)N[C@@H](Cc1ccc(O)cc1)C(N)=O)[C@@H](C)CC)[C@@H](C)O [compound 207] (H-KCNTATCATQRLANFLVHSSNNFGAILPSTKIGSNGY-NH2; disulfide 2-7; N-terminus assumed) |
| > 5000 nM |  |  | CC[C@H](C)[C@H](NC(=O)[C@H](CCC(N)=O)NC(=O)[C@H](Cc1c[nH]cn1)NC(=O)[C@H](C)NC(=O)[C@H](CC(C)C)NC(=O)[C@H](CCCNC(=N)N)NC(=O)[C@H](CCC(N)=O)NC(=O)[C@@H](NC(=O)[C@@H](NC(=O)[C@@H]1CSSC[C@H](NC(=O)[C@H](CCCCN)NC(=O)CC[C@H](NC(=O)CCCCCCCCCCCCCCCCCCC(=O)O)C(=O)O)C(=O)N[C@@H](CC(N)=O)C(=O)N[C@@H]([C@@H](C)O)C(=O)N[C@@H](Cc2ccc(O)cc2)C(=O)N[C@@H]([C@@H](C)O)C(=O)N1)[C@@H](C)O)C(C)C)C(=O)N[C@@H](Cc1ccc(O)cc1)C(=O)N[C@@H](CCC(N)=O)C(=O)N[C@@H](Cc1ccccc1)C(=O)N[C@H](C(=O)N[C@@H](CC(=O)O)C(=O)N[C@@H](CCCCN)C(=O)N[C@@H](CC(=O)O)C(=O)N[C@@H](CCCCN)C(=O)N[C@@H](CC(=O)O)C(=O)N[C@@H](CC(N)=O)C(=O)N[C@H](C(=O)N[C@@H](C)C(=O)N1CCC[C@H]1C(=O)N1CCC[C@H]1C(=O)N[C@H](C(=O)N[C@@H](CC(N)=O)C(=O)N[C@H](C(=O)NCC(=O)N[C@@H](CO)C(=O)N[C@@H](CC(N)=O)C(=O)NCC(=O)N1C[C@H](O)C[C@H]1C(N)=O)C(C)C)[C@@H](C)O)C(C)C)[C@@H](C)O [compound 231] ({C20 diacid-γGlu}-KCNTYTCTVQRLAHQIYQFTDKDKDNVAPPTNVGSNG[Hyp]-NH2; disulfide 2-7) |
|  | 0.039 nM | 2.000% | CC[C@H](C)[C@H](NC(=O)[C@H](CCC(N)=O)NC(=O)[C@H](Cc1c[nH]cn1)NC(=O)[C@H](C)NC(=O)[C@H](CC(C)C)NC(=O)[C@H](CCCNC(=N)N)NC(=O)[C@H](CCC(N)=O)NC(=O)[C@@H](NC(=O)[C@@H](NC(=O)[C@@H]1CSSC[C@H](NC(=O)CN)C(=O)N[C@@H](CCCNC(=N)N)C(=O)N[C@@H](Cc2ccccc2)C(=O)NCC(=O)N[C@@H]([C@@H](C)O)C(=O)N1)[C@@H](C)O)C(C)C)C(=O)N[C@@H](Cc1ccc(O)cc1)C(=O)N[C@@H](CCC(N)=O)C(=O)N[C@@H](Cc1ccccc1)C(=O)N[C@H](C(=O)N[C@@H](CC(=O)O)C(=O)N[C@@H](CCCCN)C(=O)N[C@@H](CC(=O)O)C(=O)N[C@@H](CCCCN)C(=O)N[C@@H](CC(=O)O)C(=O)N[C@@H](CC(N)=O)C(=O)N[C@H](C(=O)N[C@@H](C)C(=O)N1CCC[C@H]1C(=O)N[C@@H](CCCNC(=N)N)C(=O)N[C@@H](CO)C(=O)N[C@@H](CC(N)=O)C(=O)N[C@H](C(=O)N[C@@H](CO)C(=O)N1CCC[C@H]1C(=O)N[C@@H](CCC(N)=O)C(=O)NCC(=O)N1C[C@H](O)C[C@H]1C(N)=O)C(C)C)C(C)C)[C@@H](C)O [compound 145] (H-GCRFGTCTVQRLAHQIYQFTDKDKDNVAPRSNVSPQG[Hyp]-NH2; disulfide 2-7; N-terminus assumed) |
|  | 0.036 nM | 3.200% | CC[C@H](C)[C@H](NC(=O)[C@H](CCC(N)=O)NC(=O)[C@H](Cc1c[nH]cn1)NC(=O)[C@H](C)NC(=O)[C@H](CC(C)C)NC(=O)[C@H](CCCNC(=N)N)NC(=O)[C@H](CCC(N)=O)NC(=O)[C@@H](NC(=O)[C@@H](NC(=O)[C@@H]1CSSC[C@H](NC(=O)CN)C(=O)N[C@@H](CCCNC(=N)N)C(=O)N[C@@H](Cc2ccccc2)C(=O)NCC(=O)N[C@@H]([C@@H](C)O)C(=O)N1)[C@@H](C)O)C(C)C)C(=O)N[C@@H](Cc1ccc(O)cc1)C(=O)N[C@@H](CCC(N)=O)C(=O)N[C@@H](Cc1ccccc1)C(=O)N[C@H](C(=O)N[C@@H](CC(=O)O)C(=O)N[C@@H](CCCCN)C(=O)N[C@@H](CC(=O)O)C(=O)N[C@@H](CCCCN)C(=O)N[C@@H](CC(=O)O)C(=O)N[C@@H](CC(N)=O)C(=O)N[C@H](C(=O)N[C@@H](C)C(=O)N1CCC[C@H]1C(=O)N[C@@H](CCCNC(=N)N)C(=O)N[C@H](C(=O)N[C@@H](CC(N)=O)C(=O)N[C@H](C(=O)N[C@@H](CO)C(=O)N1CCC[C@H]1C(=O)N[C@@H](CCC(N)=O)C(=O)NCC(=O)N1C[C@H](O)C[C@H]1C(N)=O)[C@@H](C)CC)[C@@H](C)O)C(C)C)[C@@H](C)O [compound 141] (H-GCRFGTCTVQRLAHQIYQFTDKDKDNVAPRTNISPQG[Hyp]-NH2; disulfide 2-7; N-terminus assumed) |
|  | 0.027 nM | 30.300% | CC[C@H](C)[C@H](NC(=O)[C@H](CCC(N)=O)NC(=O)[C@H](Cc1c[nH]cn1)NC(=O)[C@H](C)NC(=O)[C@H](CC(C)C)NC(=O)[C@H](Cc1c[nH]c2ccccc12)NC(=O)[C@H](CCC(N)=O)NC(=O)[C@@H](NC(=O)[C@@H](NC(=O)[C@@H]1CSSC[C@H](NC(=O)CN)C(=O)N[C@@H](CCCNC(=N)N)C(=O)N[C@@H](Cc2ccccc2)C(=O)NCC(=O)N[C@@H]([C@@H](C)O)C(=O)N1)[C@@H](C)O)C(C)C)C(=O)N[C@@H](Cc1ccc(O)cc1)C(=O)N[C@@H](CCC(N)=O)C(=O)N[C@@H](Cc1ccccc1)C(=O)N[C@H](C(=O)N[C@@H](CC(=O)O)C(=O)N[C@@H](CCCCN)C(=O)N[C@@H](CC(=O)O)C(=O)N[C@@H](CCCCN)C(=O)N[C@@H](CC(=O)O)C(=O)N[C@@H](CC(N)=O)C(=O)N[C@H](C(=O)N[C@@H](C)C(=O)N1CCC[C@H]1C(=O)N[C@@H](CCCNC(=N)N)C(=O)N[C@@H](CO)C(=O)N[C@@H](CCCCN)C(=O)N[C@H](C(=O)NCC(=O)N1CCC[C@H]1C(=O)N[C@@H](CCC(N)=O)C(=O)NCC(=O)N1C[C@H](O)C[C@H]1C(N)=O)C(C)C)C(C)C)[C@@H](C)O [compound 353] (H-GCRFGTCTVQWLAHQIYQFTDKDKDNVAPRSKVGPQG[Hyp]-NH2; disulfide 2-7; N-terminus assumed) |
